Results taken from US20160340322A1 (NISSAN CHEMICAL INDUSTRIES, LTD., priority 2013, published 2016).

Biological target: T1, Human T-type calcium channel (Cav 3.2) (Homo sapiens, UniProt O95180)
T1 construct: Edward Perez-Reyes, University of Virginia, USA; host or cells: HEK293
Test: Calcium Influx Inhibition Assay
Assay type: cell-based
Conditions: human T-type calcium channel (Cav 3.2) expressing HEK293 cells; FLIPR Calcium 4 fluorescence; 30 min compound incubation; read-out: T-type calcium channel inhibition concentration IC50
Description: 1. Calcium Influx Inhibition Assay Human T-type calcium channel (Cav 3.2) expressing HEK293 cells were introduced from Prof. Edward Perez-Reyes, University of Virginia, USA. The calcium-sensitive fluorescent dye used was FLIPR Calcium 4 Assay Kit (Molecular Devices). To a black 96-well plate with a clear bottom coated with type I collagen, the human T-type calcium channel (Cav 3.2) expressing HEK293 cells were seeded and cultured overnight, and the culture medium was removed. A solution of the calcium-sensitive fluorescent dye was added, and the resultant plate was incubated at 37° C. in an atmosphere of 5% carbon dioxide for 30 minutes. To the plate, a diluted solution of a compound was added, and subjected to further incubation at 37° C. in an atmosphere of 5% carbon dioxide for 30 minutes. While fluorescence was continuously analyzed from the bottom with a FlexStation 3 (Molecular Devices), a calcium solution was added. […] Based on the rise value in the fluorescence from the base line, the inhibition percentage was calculated. The logarithms of compound concentrations were plotted with respect to the inhibition activities to obtain an IC50 value.

T1 sequence (O95180 whole entry): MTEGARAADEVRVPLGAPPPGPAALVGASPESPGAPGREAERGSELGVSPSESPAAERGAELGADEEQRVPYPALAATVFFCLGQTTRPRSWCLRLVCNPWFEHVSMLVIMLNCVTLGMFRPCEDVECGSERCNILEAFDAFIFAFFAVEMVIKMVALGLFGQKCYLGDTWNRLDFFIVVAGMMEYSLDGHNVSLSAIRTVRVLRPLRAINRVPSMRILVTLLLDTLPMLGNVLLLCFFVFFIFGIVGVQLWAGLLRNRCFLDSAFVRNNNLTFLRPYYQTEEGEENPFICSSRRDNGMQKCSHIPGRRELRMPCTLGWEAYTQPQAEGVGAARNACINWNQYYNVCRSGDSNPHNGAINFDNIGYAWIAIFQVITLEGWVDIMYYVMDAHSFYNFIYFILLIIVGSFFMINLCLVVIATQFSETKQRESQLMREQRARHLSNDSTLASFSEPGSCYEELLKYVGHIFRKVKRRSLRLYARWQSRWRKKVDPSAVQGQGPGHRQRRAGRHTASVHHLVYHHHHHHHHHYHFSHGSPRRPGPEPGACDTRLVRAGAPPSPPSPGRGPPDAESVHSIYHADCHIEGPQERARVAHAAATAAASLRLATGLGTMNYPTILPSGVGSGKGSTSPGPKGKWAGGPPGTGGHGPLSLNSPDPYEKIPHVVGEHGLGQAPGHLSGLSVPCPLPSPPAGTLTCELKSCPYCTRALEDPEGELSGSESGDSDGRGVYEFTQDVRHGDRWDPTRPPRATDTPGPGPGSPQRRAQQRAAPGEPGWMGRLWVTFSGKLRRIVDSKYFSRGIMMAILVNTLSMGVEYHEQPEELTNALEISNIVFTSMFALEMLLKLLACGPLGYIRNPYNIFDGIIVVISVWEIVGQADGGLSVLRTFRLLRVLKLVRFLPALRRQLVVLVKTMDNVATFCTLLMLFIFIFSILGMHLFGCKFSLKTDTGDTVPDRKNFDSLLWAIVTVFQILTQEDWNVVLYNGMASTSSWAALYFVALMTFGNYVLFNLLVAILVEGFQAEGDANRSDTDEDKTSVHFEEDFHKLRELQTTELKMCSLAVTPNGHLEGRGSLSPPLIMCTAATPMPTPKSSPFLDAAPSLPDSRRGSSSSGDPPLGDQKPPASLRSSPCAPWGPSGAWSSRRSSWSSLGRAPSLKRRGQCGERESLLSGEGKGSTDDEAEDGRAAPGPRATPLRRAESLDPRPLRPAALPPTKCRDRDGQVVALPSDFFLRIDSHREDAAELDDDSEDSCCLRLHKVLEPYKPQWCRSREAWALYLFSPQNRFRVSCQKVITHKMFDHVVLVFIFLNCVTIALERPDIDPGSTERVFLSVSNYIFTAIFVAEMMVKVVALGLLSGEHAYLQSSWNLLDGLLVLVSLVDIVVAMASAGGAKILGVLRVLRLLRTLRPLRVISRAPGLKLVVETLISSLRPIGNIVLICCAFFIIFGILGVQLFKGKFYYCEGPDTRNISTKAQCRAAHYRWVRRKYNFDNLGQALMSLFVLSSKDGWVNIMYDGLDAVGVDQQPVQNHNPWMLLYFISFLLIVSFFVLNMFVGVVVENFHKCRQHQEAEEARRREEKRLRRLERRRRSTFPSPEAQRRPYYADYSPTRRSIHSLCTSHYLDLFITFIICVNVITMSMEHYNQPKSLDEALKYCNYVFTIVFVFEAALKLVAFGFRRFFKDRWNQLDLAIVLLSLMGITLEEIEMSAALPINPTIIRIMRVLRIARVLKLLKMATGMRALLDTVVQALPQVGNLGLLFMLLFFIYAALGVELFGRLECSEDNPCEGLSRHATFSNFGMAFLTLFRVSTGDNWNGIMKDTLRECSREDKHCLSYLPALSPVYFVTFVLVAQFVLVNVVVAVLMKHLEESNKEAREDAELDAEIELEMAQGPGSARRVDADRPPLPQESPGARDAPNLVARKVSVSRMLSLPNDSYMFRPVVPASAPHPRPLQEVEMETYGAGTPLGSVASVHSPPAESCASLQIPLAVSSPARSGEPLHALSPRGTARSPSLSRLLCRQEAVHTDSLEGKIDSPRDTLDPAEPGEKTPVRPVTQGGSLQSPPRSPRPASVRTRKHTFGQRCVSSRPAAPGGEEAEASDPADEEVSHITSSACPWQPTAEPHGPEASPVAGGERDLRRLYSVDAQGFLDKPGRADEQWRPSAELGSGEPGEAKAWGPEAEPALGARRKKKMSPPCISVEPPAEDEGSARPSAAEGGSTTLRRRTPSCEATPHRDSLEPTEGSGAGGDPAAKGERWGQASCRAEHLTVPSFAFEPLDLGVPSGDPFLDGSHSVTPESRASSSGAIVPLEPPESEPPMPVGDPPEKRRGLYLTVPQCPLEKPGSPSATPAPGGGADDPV

| SMILES | IC50 [nM] |
| --- | --- |
| O=c1nc(N2CC=C(c3ccc(F)cc3)[C@@H](O)C2)cnn1Cn1cc(Cl)cn1 [Synthesis Example 47, (R)-2-[(4-Chloro-1H-pyrazol-1-yl)methyl]-5-[4-(4-fluorophenyl)-5-hydroxy-5,6-dihydropyridin-1(2H)-yl]-1,2,4-triazin-3(2H)-one] | 2600 |
| Cc1cccc(C2=CCN(c3cnn(Cc4ccc(C(F)(F)F)s4)c(=O)n3)C[C@@H]2O)n1 [Synthesis Example 31, (R)-5-[5′-Hydroxy-6-methyl-5′,6′-dihydro-(2,4′-bipyridin)-1′(2′H)-yl]-2-{[5-(trifluoromethyl)thiophen-2-yl]methyl}-1,2,4-triazin-3 (2H)-one] | 120 |
| O=c1nc(N2CCN(c3ccc(F)cc3)CC2)cnn1Cc1cnc(C(F)(F)F)s1 [Synthesis Example 10, 5-[4-(4-Fluorophenyl)piperazin-1-yl]-2-{[2-(trifluoromethyl)thiazol-5-yl]methyl}-1,2,4-triazin-3(2H)-one] | 490 |
| Cc1ccc(C2=CCN(c3cnn(Cc4cnc(C(F)(F)F)s4)c(=O)n3)C[C@@H]2O)cc1F [Synthesis Example 45, (R)-5-[4-(3-Fluoro-4-methylphenyl)-5-hydroxy-5,6-dihydropyridin-1(2H)-yl]-2-{[2-(trifluoromethyl)thiazol-5-yl]methyl}-1,2,4-triazin-3(2H)-one] | 130 |
| O=c1nc(N2CC=C(c3ccc(F)cc3)C(F)C2)cnn1Cc1cnc(C(F)(F)F)s1 (centres unmarked) [Synthesis Example 22, 5-[5-Fluoro-4-(4-fluorophenyl)-5,6-dihydropyridin-(2H)-yl]-2-{[2-(trifluoromethyl)thiazol-5-yl]methyl}-1,2,4-triazin-3(2H)-one] | 120 |
| O=c1nc(N2CCN(c3ccc(F)cc3)CC2)cnn1Cc1ccc(OCc2ccc(Cl)cc2)cc1 [Synthesis Example 3, 2-{4-[(4-Chlorobenzyl)oxy]benzyl}-5-[4-(4-fluorophenyl)piperazin-1-yl]-1,2,4-triazin-3(2H)-one] | 200 |
| COc1ccc2c(c1)CCN(c1cnn(Cc3ccc(C(F)(F)F)s3)c(=O)n1)C2C (centres unmarked) [Synthesis Example 42, 5-[6-Methoxy-1-methyl-3,4-dihydroisoquinolin-2(1H)-yl]-2-{[5-(trifluoromethyl)thiophen-2-yl]methyl}-1,2,4-triazin-3(2H)-one] | 600 |
| O=c1nc(N2CCN(c3ccc(F)cc3)CC2)cnn1Cc1ccc(Cl)cc1 [Synthesis Example 1, 2-(4-Chlorobenzyl)-5-[4-(4-fluorophenyl)piperazin-1-yl]-1,2,4-triazin-3(2H)-one] | 220 |
| CCOc1ccc2c(c1)C(O)CN(c1cnn(Cc3ccc(C(F)(F)F)s3)c(=O)n1)C2 (centres unmarked) [Synthesis Example 16] | 180 |
| O=c1nc(N2CCc3cc(C(F)(F)F)ccc3C2)cnn1Cc1ccc(C(F)(F)F)s1 [Synthesis Example 53, 5-[6-(trifluoromethyl)-3,4-dihydroisoquinolin-2(1H)-yl]-2-{[5-(trifluoromethyl)thiophen-2-yl]methyl}-1,2,4-triazin-3(2H)-one] | 170 |
| Cn1cc(C2=CCN(c3cnn(Cc4ccc(C(F)(F)F)s4)c(=O)n3)C[C@@H]2O)cn1 [Synthesis Example 38, (R)-5-[5-Hydroxy-4-(1-methyl-1H-pyrazol-4-yl)-5,6-dihydropyridin-1(2H)-yl]-{[5-(trifluoromethyl)thiophen-2-yl]methyl}-1,2,4-triazin-3(2H)-one] | 180 |
| O=c1nc(N2CCc3cc(C(F)(F)F)ccc3C2)cnn1Cc1cnc(C(F)(F)F)s1 [Synthesis Example 44, 5-[6-(trifluoromethyl)-3,4-dihydroisoquinolin-2-(1H)-yl]-2-{[2-(trifluoromethyl)thiazol-5-yl]methyl}-1,2,4-triazin-3(2H)-one] | 570 |
| O=c1nc(N2CC=C(c3ccc(F)cc3)[C@@H](O)C2)cnn1Cc1ccc(OC(F)F)nc1 [Synthesis Example 28, (R)-2-{[6-(Difluoromethoxy)pyridin-3-yl]methyl}-5-[4-(4-fluorophenyl)-5-hydroxy-5,6-dihydropyridin-1(2H)-yl]-1,2,4-triazin-3(2H)-one] | 94 |
| O=c1nc(N2Cc3ccc(O)cc3C(O)C2)cnn1Cc1ccc(C(F)(F)F)s1 (centres unmarked) [Synthesis Example 25, 5-[4,6-Dihydroxy-3,4-dihydroisoquinolin-2(1H)-yl]-2-{[5-(trifluoromethyl)thiophen-2-yl]methyl}-1,2,4-triazin-3(2H)-one] | 1800 |

Stronger by IC50, values ahead:

| IC50 [nM] | SMILES |
| --- | --- |
| 48 | COc1cccc(C2=CCN(c3cnn(Cc4ccc(C(F)(F)F)s4)c(=O)n3)C[C@@H]2O)n1 [Synthesis Example 32] |
| 39 | O=c1nc(N2CCc3c([nH]c4cc(F)ccc34)C2)cnn1Cc1cnc(C(F)(F)F)s1 [Synthesis Example 14, 5-(7-Fluoro-3,4-dihydro-1H-pyrido[3,4-b]indol-2(9H)-yl)-2-{[2-(trifluoromethyl)thiazol-5-yl]methyl}-1,2,4-triazin-3(2H)-one] |
| 38 | CCCCCCOc1ccc(Cn2ncc(N3CCN(c4ccc(F)cc4)CC3)nc2=O)cc1 [Synthesis Example 2, 5-[4-(4-Fluorophenyl)piperazin-1-yl]-2-[4-(hexyloxy)benzyl]-1,2,4-triazin-3(2H)-one] |
| 35 | O=c1nc(N2CCN(c3ccc(F)cc3)CC2)cnn1Cc1ccc(OCc2ccc(F)cc2)cc1 [Synthesis Example 4, 2-{4-[(4-Fluorobenzyl)oxy]benzyl}-5-[4-(4-fluorophenyl)piperazin-1-yl]-1,2,4-triazin-3(2H)-one] |
| 31 | O=c1nc(N2CC=C(c3ccc(F)cc3)C(F)C2)cnn1Cc1ccc(C(F)(F)F)s1 (centres unmarked) [Synthesis Example 35, 5-[5-Fluoro-4-(4-fluorophenyl)-5,6-dihydropyridin-1(2H)-yl]-2-{[5-(trifluoromethyl)thiophen-2-yl]methyl}-1,2,4-triazin-3(2H)-one] |
| 26 | Cc1cc(C2=CCN(c3cnn(Cc4cnc(C(F)(F)F)s4)c(=O)n3)C[C@@H]2O)cs1 [Synthesis Example 12, (R)-5-[5-Hydroxy-4-(5-methylthiophen-3-yl)-5,6-dihydropyridin-1(2H)-yl]-2-{[2-(trifluoromethyl)thiazol-5-yl]methyl}-1,2,4-triazin-3(2H)-one] |
| 25 | O=c1nc(N2CC=C(c3ccc(F)cc3)[C@@H](O)C2)cnn1Cn1ccc(C(F)(F)C(F)(F)F)n1 [Synthesis Example 49, (R)-5-[4-(4-Fluorophenyl)-5-hydroxy-5,6-dihydropyridin-1(2H)-yl]-2-{[3-(perfluoroethyl)-1 H-pyrazol-1-yl]methyl}-1,2,4-triazin-3(2H)-one] |
| 5.6 | O=c1nc(N2CC=C(c3ccc(F)cc3)[C@@H](O)C2)cnn1Cc1ccc(OS(=O)(=O)C(F)(F)F)nc1 [Synthesis Example 51, (R)-5-({5-[4-(4-Fluorophenyl)-5-hydroxy-5,6-dihydropyridin-1(2H)-yl]-3-oxo-1,2,4-triazin-2(3H)-yl}methyl)pyridin-2-yl trifluoromethanesulfonate] |
| 3.1 | O=c1nc(N2CC=C(c3ccc(F)c(Cl)c3)[C@@H](O)C2)cnn1Cc1ccc(C(F)(F)F)s1 [Synthesis Example 54, (R)-5-[4-(3-Chloro-4-fluorophenyl)-5-hydroxy-5,6-dihydropyridin-1(2H)-yl]-2-{[5-(trifluoromethyl)thiophen-2-yl]methyl}-1,2,4-triazin-3(2H)-one] |
